In ChEMBL document CHEMBL1201862, “PubChem BioAssay data set” (2004):
Active and inactive are the calls of the source.

Columns and labels:
[1] = biological target: FAD-linked sulfhydryl oxidase ALR (Homo sapiens, UniProt P55789); experiment: ALR-catalysed DTT oxidation blockers – biochemical, H2O2 detection, luminescence, cherry-pick, dose response (AID 493248)
Escherichia coli = experiment: microbe, parasite or virus in culture
[2] = biological target: T1, Endoribonuclease toxin MazF (Escherichia coli K-12, UniProt P0AE70); experiment: activation of MazEF endoribonuclease cleavage – biochemical, fluorescence, single-stranded RNA substrate, uHTS hits, dose response (AID 588481); assay type: functional
T1 sequence (P0AE70 whole entry): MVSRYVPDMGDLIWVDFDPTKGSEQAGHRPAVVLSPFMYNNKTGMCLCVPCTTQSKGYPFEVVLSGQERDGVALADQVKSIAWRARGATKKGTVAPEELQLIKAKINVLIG

[3] = biological target: T1, Endoribonuclease toxin MazF; experiment: substrate-only fluorescence increase artefacts – biochemical, single-stranded RNase substrate, counter-screen for MazEF activator project, dose response (AID 588502); assay type: functional
[4] = biological target: T2, RNA-binding protein pos-1 (Caenorhabditis elegans, UniProt G5EF15); experiment: disruptors of C. elegans POS-1 RNA interaction – biochemical, fluorescence polarization, dose response (AID 1964);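 also: purified POS-1 fused to maltose binding protein made in E. coli; potency of compounds blocking POS-1 binding to fluorescent RNA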
T2 sequence (G5EF15 whole entry): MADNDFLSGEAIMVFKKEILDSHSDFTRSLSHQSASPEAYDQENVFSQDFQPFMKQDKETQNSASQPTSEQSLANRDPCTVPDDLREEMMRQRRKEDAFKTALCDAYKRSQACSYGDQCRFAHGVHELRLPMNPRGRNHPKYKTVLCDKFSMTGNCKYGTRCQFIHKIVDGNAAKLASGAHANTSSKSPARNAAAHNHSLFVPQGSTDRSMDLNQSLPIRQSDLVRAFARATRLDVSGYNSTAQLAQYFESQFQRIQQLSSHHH

[5] = biological target: T3, Zinc finger protein mex-5 (Caenorhabditis elegans, UniProt Q9XUB2); experiment: potency of MEX-5 RNA-binding blockers – biochemical, C. elegans, fluorescence polarization, dose response (AID 1960)
T3 sequence (Q9XUB2 whole entry): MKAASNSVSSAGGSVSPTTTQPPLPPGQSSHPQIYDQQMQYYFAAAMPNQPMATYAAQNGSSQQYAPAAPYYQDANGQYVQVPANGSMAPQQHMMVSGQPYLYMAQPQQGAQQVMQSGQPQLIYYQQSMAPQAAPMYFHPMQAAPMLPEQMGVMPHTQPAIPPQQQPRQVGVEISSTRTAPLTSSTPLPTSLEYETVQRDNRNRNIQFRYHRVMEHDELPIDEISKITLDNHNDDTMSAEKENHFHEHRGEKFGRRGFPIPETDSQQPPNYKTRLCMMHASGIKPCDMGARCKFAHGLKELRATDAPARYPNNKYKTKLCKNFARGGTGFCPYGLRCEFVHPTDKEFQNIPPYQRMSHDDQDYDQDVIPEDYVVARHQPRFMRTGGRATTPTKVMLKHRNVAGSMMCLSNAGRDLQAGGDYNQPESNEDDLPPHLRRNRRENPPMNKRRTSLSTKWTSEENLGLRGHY

CHO = CHO cell viability loss, potency – luminescence, cytotoxicity control for TLR9-MyD88 binding inhibitor project, dose response (AID 588339); assay type: functional, cell-based, hamster; settings: Cricetulus griseus;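 also: CHO cells stably coexpressing TLR9 and MyD88 fusions from primary screen; compound exposure lasted 48 hours before viability readout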
Beta Lactamase = Beta Lactamase (Pseudomonas aeruginosa, UniProt Q932Y6); experiment: BLA reporter interference, concentration series – BLA reporter cells, FRET fluorescence, artefact control for TLR9-MyD88 binding inhibitor project, dose response (AID 588341); assay type: cell-based;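 also: cell based assay in CHO-K1 cells stably expressing beta-lactamase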
Chain of Beta Lactamase (Q932Y6 whole entry): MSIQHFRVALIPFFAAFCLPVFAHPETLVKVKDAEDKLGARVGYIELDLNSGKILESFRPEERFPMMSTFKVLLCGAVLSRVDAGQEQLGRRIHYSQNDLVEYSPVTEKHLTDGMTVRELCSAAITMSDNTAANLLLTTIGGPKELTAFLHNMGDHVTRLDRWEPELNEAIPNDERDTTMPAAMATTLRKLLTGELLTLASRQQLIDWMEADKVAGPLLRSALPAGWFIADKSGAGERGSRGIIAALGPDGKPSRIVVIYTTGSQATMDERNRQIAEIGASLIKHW

[6] = biological target: T4, Corticotropin-releasing factor receptor 2/Corticotropin-releasing factor-binding protein (Homo sapiens, UniProt P24387+Q13324); experiment: activators of CRF receptor 2 with binding protein – uHTS hits, confirmation (AID 602473); assay type: functional; settings: read-out: EC50_Mean
T4 sequence (Q13324 whole entry): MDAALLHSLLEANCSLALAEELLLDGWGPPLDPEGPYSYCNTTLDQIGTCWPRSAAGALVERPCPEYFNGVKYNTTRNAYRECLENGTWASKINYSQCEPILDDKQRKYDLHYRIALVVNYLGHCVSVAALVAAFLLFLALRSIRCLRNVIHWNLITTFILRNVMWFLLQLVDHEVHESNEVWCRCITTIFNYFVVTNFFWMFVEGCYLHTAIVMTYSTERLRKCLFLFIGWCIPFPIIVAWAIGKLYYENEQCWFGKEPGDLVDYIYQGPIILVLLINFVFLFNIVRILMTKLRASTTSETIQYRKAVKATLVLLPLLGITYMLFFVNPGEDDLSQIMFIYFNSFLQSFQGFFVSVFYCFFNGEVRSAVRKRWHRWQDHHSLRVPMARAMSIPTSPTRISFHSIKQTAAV
T4 sequence (P24387 whole entry): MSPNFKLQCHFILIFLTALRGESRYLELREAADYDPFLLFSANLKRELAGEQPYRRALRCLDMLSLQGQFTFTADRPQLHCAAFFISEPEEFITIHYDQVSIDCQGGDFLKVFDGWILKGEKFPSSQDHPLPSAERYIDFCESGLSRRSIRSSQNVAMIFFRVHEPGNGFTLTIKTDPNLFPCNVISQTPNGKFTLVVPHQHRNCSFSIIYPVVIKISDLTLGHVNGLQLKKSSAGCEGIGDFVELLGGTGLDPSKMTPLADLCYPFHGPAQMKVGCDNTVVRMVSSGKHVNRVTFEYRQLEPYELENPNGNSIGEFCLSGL

[7] = Luminescence Cell-Based Dose Retest to Confirm Inhibitors of Cancer Stem Cells. [Related pubchem assays (depositor defined):AID2717, AID2721]; assay type: functional; settings: Homo sapiens
[8] = viability loss of HMLE_sh_eGFP cells – cell-based, luminescence, counter-screen for HMLE_sh_ECad selective toxicity project, dose response (AID 463074); assay type: functional, Homo sapiens;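 also: HMLE human mammary epithelial cells expressing control shRNA against eGFP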
[9] = biological target: Voltage-gated inwardly rectifying potassium channel KCNH2 (Homo sapiens, UniProt Q12809); settings: Potency;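 also: confirmatory quantitative high-throughput screen measuring inhibition of hERG channel activity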
Chain of Voltage-gated inwardly rectifying potassium channel KCNH2 (Q12809 whole entry): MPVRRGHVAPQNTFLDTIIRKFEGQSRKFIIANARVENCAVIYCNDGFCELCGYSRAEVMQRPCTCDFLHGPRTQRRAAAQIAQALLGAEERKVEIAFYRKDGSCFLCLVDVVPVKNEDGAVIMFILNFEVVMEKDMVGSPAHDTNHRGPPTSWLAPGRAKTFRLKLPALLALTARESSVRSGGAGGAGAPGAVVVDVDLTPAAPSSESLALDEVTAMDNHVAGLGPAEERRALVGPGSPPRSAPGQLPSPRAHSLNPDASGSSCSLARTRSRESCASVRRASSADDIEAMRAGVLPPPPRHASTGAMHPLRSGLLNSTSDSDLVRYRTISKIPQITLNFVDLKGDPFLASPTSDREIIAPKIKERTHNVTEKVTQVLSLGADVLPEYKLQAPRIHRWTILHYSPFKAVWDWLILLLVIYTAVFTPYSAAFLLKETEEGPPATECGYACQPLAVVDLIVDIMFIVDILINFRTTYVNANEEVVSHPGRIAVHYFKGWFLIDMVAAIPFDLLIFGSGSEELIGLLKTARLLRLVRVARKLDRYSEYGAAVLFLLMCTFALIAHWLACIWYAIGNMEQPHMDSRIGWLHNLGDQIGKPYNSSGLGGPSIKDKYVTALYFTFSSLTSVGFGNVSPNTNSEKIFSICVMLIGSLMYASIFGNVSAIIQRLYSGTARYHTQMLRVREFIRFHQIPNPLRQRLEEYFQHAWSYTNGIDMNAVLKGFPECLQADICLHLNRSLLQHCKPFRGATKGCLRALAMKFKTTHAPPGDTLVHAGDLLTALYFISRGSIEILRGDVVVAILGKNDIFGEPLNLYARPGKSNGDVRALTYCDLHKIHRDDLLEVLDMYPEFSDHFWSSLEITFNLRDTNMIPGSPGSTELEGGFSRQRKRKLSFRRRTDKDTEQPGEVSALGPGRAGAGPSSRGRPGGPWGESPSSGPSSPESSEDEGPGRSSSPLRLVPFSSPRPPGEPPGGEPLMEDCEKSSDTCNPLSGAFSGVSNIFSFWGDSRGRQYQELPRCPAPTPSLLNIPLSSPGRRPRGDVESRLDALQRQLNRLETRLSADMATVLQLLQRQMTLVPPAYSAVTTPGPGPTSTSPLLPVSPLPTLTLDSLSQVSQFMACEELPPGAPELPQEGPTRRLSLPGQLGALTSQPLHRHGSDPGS

[10] = biological target: T5, Apoptotic protease-activating factor 1 (Homo sapiens, UniProt O14727); experiment: SAR analysis of small molecule inhibitors of Apaf-1 in a Fluorescent assay.; assay type: functional; settings: read-out: IC50_Mean
T5 sequence (O14727 whole entry): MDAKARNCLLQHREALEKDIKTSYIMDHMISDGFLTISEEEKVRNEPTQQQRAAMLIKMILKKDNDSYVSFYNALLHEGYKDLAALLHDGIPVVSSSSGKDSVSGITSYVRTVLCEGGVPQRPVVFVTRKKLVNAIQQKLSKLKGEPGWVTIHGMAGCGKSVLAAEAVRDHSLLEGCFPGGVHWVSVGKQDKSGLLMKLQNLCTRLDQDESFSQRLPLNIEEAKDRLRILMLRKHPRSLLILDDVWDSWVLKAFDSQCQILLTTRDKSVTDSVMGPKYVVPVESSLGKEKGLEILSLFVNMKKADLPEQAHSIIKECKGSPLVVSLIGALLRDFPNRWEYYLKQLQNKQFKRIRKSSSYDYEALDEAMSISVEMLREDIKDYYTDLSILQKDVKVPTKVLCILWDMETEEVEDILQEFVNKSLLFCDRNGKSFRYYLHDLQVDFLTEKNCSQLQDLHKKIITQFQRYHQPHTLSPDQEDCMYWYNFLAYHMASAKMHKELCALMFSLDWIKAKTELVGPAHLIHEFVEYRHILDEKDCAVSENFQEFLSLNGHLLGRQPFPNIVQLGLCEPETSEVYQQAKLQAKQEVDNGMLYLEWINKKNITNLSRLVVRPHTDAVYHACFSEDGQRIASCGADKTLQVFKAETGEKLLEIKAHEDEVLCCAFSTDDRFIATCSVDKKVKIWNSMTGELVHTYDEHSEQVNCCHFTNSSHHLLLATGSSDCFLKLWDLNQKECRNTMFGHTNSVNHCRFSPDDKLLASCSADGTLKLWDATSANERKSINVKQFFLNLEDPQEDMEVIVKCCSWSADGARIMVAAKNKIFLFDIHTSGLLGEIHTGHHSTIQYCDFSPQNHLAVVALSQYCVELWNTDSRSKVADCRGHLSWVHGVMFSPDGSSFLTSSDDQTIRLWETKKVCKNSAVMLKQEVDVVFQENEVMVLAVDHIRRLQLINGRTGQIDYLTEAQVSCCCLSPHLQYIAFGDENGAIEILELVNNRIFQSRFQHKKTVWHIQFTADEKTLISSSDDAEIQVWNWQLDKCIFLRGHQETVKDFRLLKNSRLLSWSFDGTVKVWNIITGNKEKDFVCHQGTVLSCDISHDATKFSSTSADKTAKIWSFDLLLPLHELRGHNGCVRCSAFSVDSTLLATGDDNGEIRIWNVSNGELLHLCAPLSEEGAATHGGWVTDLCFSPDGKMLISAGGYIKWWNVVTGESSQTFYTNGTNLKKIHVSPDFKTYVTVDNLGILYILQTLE

[11] = test system: Streptococcus sp. 'group A'; experiment: Streptococcus pyogenes SK(-)GAS viability under kanamycin – luminescence, BacTiterGlo, confirmation, counter-screen for streptokinase expression inhibitor project, dose response (AID 1900); assay type: functional, organism-based
Streptokinase A = biological target: T6, Streptokinase A (Streptococcus pyogenes serotype M1, UniProt P10520); experiment: viability-normalized secreted streptokinase activity reduction – plasminogen activation absorbance, OD405, dose response (AID 1914); assay type: functional, Streptococcus pyogenes M1 GAS;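 also: secreted streptokinase activity via plasminogen activation per viability signal from cell pellet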
T6 sequence (P10520 whole entry): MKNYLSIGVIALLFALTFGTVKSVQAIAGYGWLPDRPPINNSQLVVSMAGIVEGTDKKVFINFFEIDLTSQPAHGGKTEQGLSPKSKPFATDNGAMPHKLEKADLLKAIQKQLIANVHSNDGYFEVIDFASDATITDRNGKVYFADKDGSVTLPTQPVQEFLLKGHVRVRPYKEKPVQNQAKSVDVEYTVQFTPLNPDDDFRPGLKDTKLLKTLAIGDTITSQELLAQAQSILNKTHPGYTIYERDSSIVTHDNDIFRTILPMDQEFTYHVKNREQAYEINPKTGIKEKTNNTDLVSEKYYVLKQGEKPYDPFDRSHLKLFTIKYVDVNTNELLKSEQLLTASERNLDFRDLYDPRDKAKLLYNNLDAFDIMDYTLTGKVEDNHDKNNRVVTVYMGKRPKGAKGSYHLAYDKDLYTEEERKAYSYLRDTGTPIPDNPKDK

Streptococcus = experiment: GAS UMAA2166 growth inhibition – luminescence, BacTiterGlo, counter-screen for streptokinase expression inhibitor project, dose response (AID 1915); assay type: functional, organism-based;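 also: potency for reduction of bacterial viability or growth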
[12] = blockers of HIV-1 envelope-mediated cell-cell fusion – cherry-pick, dose response (AID 652057); assay type: functional, cell-based
[13] = blockers of HIV-1 ZM109 envelope-driven cell-cell fusion – HeLa effector, CEM target cells, luciferase, cherry-pick, dose response (AID 652058); assay type: functional, cell-based;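 also: luciferase signal from HIV-1 Env mediated cell-cell fusion of effector and target cells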
[14] = off-target signal loss in HeLa-CEM21 co-culture – HeLa F-luc CTL cells, cherry-picked, counter-screen for HIV-1 Env fusion inhibitor project, dose response (AID 652040); assay type: functional, cell-based;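 also: potency for signal decrease marking cytotoxic or nonspecific inhibition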
[15] = HIV-1 AD8 envelope cell-cell fusion blockers – cherry-pick, dose response (AID 652062); assay type: functional, cell-based;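 also: luciferase signal from cell-cell fusion driven by HIV-1 clade B AD8 Env; potency is for inhibitors of fusion seen as a drop in luminescence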
HEK293 [16] = experiment: cells; settings: Homo sapiens
HEK293 [17] = experiment: cells; settings: Homo sapiens; remark: listed apart in the source

Chain of FAD-linked sulfhydryl oxidase ALR (P55789 whole entry): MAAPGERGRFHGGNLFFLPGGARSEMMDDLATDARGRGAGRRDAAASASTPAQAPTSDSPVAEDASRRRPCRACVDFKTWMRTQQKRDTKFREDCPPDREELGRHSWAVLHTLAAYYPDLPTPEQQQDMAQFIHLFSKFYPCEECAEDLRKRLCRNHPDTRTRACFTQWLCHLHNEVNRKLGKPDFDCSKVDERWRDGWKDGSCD

With `Cc1ccc(SCc2noc(C(=O)NC(C)C)c2C(=O)O)cc1C` the AC50 [1] was 4.26 µM (active) and the AC50 (Escherichia coli) was 65.6 µM (active).

For `Cc1cccc(N=Nc2c(O)[nH]c3ccc(F)cc23)c1`, the EC50 [2] was 38.7 µM (inactive) and the EC50 [3] was > 99 µM (inactive).

In the case of `COc1ccc(C(=O)c2sc3nc(C)cc(-c4cccs4)c3c2N)cc1`, the EC50 [4] was 16.9 µM (active), the EC50 [5] was 11 µM (active) and the IC50 (CHO) was > 49.7 µM (inactive). The IC50 (Beta Lactamase) was 3.85 µM (active) and the EC50 [6] was 6.58 µM (active).

For `Cc1ccc(CSc2ccc(-c3ccc4c(c3)OCO4)nn2)cc1`, the AC50 [7] was 1.46 µM (active) and the AC50 [8] was 43.6 µM (active).

For `CC(C=O)Cc1ccc(C(C)(C)C)cc1` (stereo not drawn), the AC50 [9] was 50.1 µM (inconclusive).

With `O=C(Nc1ccc2nc(-c3ccc(Br)o3)[nH]c2c1)c1cccs1` the IC50 [10] was > 100 µM (inactive).

In the case of `CC(C)(C)c1ccc(OCC(O)CS(=O)(=O)c2ccccn2)cc1` (stereo not drawn), the EC50 [11] was > 150 µM (not active), the EC50 (Streptokinase A) was > 150 µM (not active) and the EC50 (Streptococcus) was > 150 µM (not active). The AC50 (Escherichia coli) was 23.7 µM (active).

With `CCN(C[C@H]1N[C@@](CC)(C(=O)OC)[C@H]2C(=O)N(Cc3ccccc3)C(=O)[C@@H]12)S(=O)(=O)c1ccc(C)cc1` the AC50 [12] was 2.36 µM (active), the AC50 [13] was 2.37 µM (active) and the AC50 [14] was 3.4 µM (active). For the same compound, the AC50 [15] was 4.32 µM (active), the EC50 (HEK293 [16]) was > 59.6 µM (inactive) and the EC50 (HEK293 [17]) was > 59.6 µM (inactive).
